In ChEMBL document CHEMBL5150060 (J Med Chem, 2022):
The source made the active and inactive calls. No cut-off for these calls is given here.

Assays:
[1] = Stability of compound in DMEM/DMSO/acetonitrile at pH 7.4 measured after 72 hrs by HPLC analysis; format: physicochemical; conditions: read-out: Stability
[2] = target: T1, Histone deacetylase 8 (Homo sapiens) (UniProt Q9BY41); assay: Inhibition of HDAC8 in human Jurkat T cells assessed as upregulation of IL23 expression at 10 uM after 6 to 12 hrs by RT-qPCR analysis; format: cell-based; conditions: time 6-12 hrs
T1 sequence (whole entry): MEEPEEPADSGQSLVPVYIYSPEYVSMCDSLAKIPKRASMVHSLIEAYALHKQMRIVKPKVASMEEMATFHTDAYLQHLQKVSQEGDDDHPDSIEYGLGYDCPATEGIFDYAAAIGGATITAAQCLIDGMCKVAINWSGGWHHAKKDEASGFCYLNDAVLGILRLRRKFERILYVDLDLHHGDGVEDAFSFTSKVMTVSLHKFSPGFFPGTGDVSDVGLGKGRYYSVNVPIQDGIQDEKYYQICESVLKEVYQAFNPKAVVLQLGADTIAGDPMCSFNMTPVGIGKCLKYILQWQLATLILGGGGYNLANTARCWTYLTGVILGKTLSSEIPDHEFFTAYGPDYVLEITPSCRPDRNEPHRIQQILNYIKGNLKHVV

[3] = target: T1, Histone deacetylase 8 (Homo sapiens); assay: Inhibition of HDAC8 in human Jurkat T cells assessed as upregulation of PRDM1 expression at 10 uM after 6 to 12 hrs by RT-qPCR analysis; format: cell-based; conditions: time 6-12 hrs
[4] = target: T1, Histone deacetylase 8 (Homo sapiens); assay: Inhibition of HDAC8 in human Jurkat T cells assessed as upregulation of IL-7R expression at 10 uM after 6 to 12 hrs by RT-qPCR analysis; format: cell-based; conditions: time 6-12 hrs
[5] = target: T1, Histone deacetylase 8 (Homo sapiens); assay: Inhibition of HDAC8 in human Jurkat T cells assessed as upregulation of IL23 expression after 6 hrs by RT-qPCR analysis; format: cell-based; conditions: dose 0.1-10 µM, DDE = dose-dependent effect
[6] = Stability of compound in DMEM/DMSO/acetonitrile at pH 7.4 measured after 12 hrs by HPLC analysis; format: physicochemical; conditions: read-out: Stability
[7] = target: T1, Histone deacetylase 8 (Homo sapiens); assay: Inhibition of HDAC8 in human Jurkat T cells assessed as upregulation of IL10 expression at 10 uM after 6 to 12 hrs by RT-qPCR analysis; format: cell-based; conditions: time 6-12 hrs
[8] = target: T1, Histone deacetylase 8 (Homo sapiens); assay: Inhibition of HDAC8 in human Jurkat T cells assessed as upregulation of PRDM1 expression after 6 hrs by RT-qPCR analysis; format: cell-based; conditions: dose 0.1-10 µM, DDE = dose-dependent effect
[9] = target: T2, Protein deacetylase HDAC6 (Mus musculus) (UniProt Q9Z2V5); assay: Inhibition of HDAC6 in mouse spleen CD4+ T- lymphocytes assessed as increase in H3K27 acetylation level at 5 to 10 uM after 6 hrs by Western blot analysis; format: cell-based; conditions: CD4+ve Th, dose 5-10 µM
T2 sequence (whole entry): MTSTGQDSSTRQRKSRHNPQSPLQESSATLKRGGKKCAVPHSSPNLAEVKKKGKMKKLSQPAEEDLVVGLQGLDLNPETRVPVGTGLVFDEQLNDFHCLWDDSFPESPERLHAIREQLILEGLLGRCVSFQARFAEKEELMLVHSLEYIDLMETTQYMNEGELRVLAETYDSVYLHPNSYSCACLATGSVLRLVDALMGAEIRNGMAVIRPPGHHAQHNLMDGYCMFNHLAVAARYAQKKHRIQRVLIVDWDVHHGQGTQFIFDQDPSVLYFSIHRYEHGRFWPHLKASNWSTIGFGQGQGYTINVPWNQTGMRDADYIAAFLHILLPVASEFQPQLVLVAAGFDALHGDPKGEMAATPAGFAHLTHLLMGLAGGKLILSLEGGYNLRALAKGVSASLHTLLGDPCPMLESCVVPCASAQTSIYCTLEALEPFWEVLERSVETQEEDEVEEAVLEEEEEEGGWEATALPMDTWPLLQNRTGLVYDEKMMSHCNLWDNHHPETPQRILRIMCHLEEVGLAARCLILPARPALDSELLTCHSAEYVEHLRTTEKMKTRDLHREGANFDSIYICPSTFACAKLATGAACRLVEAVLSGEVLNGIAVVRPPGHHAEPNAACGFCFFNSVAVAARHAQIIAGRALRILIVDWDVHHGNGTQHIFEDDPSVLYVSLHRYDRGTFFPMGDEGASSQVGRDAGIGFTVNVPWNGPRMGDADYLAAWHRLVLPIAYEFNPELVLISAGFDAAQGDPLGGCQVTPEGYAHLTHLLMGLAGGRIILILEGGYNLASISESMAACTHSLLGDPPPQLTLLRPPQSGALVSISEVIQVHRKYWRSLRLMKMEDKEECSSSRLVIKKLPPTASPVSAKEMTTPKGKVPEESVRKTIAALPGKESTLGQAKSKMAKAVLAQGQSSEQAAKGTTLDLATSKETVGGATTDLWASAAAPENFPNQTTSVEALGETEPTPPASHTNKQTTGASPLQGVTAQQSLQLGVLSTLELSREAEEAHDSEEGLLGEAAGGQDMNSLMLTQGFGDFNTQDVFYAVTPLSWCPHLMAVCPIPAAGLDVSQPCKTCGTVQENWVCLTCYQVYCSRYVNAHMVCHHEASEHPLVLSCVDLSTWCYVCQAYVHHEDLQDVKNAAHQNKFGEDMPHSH

[10] = target: T1, Histone deacetylase 8 (Homo sapiens); assay: Inhibition of HDAC8 in human Jurkat T cells assessed as upregulation of IL15 expression after 6 hrs by RT-qPCR analysis; format: cell-based; conditions: dose 0.1-10 µM, DDE = dose-dependent effect
[11] = Toxicity in C57BL/6 mouse assessed as change in liver weight at 5 to 10 mg/kg, ip administered 5 days per week for 2 weeks by H and E staining based assay; format: organism-based; conditions: in vivo, 336 h, dose 5-10 mg/kg
[12] = tested on: Mus musculus; assay: Immuno-modulatory activity in C57BL/6 mouse assessed as increase in proportion of CD8+ cells in spleen at 10 mg/kg, ip administered 5 days per week for 2 weeks by flow cytometry analysis; format: functional, organism-based
[13] = tested on: Mus musculus; assay: Immuno-modulatory activity in C57BL/6 mouse assessed as increase in proportion of CD3+ cells in spleen at 10 mg/kg, ip administered 5 days per week for 2 weeks by flow cytometry analysis; format: functional, organism-based
[14] = target: T1, Histone deacetylase 8 (Homo sapiens); assay: Inhibition of HDAC8 in human Jurkat T cells assessed as upregulation of IL-7R expression after 6 hrs by RT-qPCR analysis; format: cell-based; conditions: dose 0.1-10 µM, DDE = dose-dependent effect
[15] = target: T1, Histone deacetylase 8 (Homo sapiens); assay: Reversible binding affinity to recombinant human HDAC8 incubated for 30 mins by jump dilution method
[16] = target: T1, Histone deacetylase 8 (Homo sapiens); assay: Inhibition of HDAC8 in human Jurkat T cells assessed as upregulation of KLRG1 expression after 6 hrs by RT-qPCR analysis; format: cell-based; conditions: dose 0.1-10 µM, DDE = dose-dependent effect
[17] = target: T1, Histone deacetylase 8 (Homo sapiens); assay: Inhibition of HDAC8 in human Jurkat T cells assessed as upregulation of EOMES expression at 10 uM after 6 to 12 hrs by RT-qPCR analysis; format: cell-based; conditions: time 6-12 hrs
[18] = target: T1, Histone deacetylase 8 (Homo sapiens); assay: Inhibition of HDAC8 in human Jurkat T cells assessed as upregulation of […] expression at 10 uM after 6 to 12 hrs by RT-qPCR analysis; format: cell-based; conditions: time 6-12 hrs
[19] = target: T1, Histone deacetylase 8 (Homo sapiens); assay: Inhibition of HDAC8 in human Jurkat T cells assessed as upregulation of IL10 expression after 6 hrs by RT-qPCR analysis; format: cell-based; conditions: dose 0.1-10 µM, DDE = dose-dependent effect
[20] = target: T1, Histone deacetylase 8 (Homo sapiens); assay: Inhibition of HDAC8 in human Jurkat T cells assessed as upregulation of EOMES expression after 6 hrs by RT-qPCR analysis; format: cell-based; conditions: dose 0.1-10 µM, DDE = dose-dependent effect

remaining at 72 h [1]: 103%
inhibition [2]: Active
inhibition [3]: Active
inhibition [4]: Active
inhibition [5]: Dde
remaining at 12 h [6]: 104%
inhibition [7]: Active
inhibition [8]: Dde
inhibition [9]: Active
inhibition [10]: Dde
inhibition [14]: Dde
Activity [15]: Active
inhibition [16]: Dde
inhibition [17]: Active
inhibition [18]: Active
inhibition [19]: Dde
inhibition [20]: Dde
SMILES: CCCCCCNNC(=O)c1ccc(-c2ccc(CNC(C)=O)cc2)cc1
Activity [11]: Non-Toxic
Activity [12]: Active
Activity [13]: Active
